Laboratory results as given in patent publication US20180016554A1, “HUMAN SERUM ALBUMIN-CONTAINING CULTURE MEDIUM FOR GROWTH OF NEURAL STEM CELLS” (AJINOMOTO CO., INC., priority 2015, published 2018).
Entries after “also recorded” stand apart in the source; their conditions may differ.

System: neurosphere (neural stem cells and/or neural progenitor cells induced from human pluripotent stem cells)
Assay: Functional evaluation of fatty acid (oleic acid) added to human serum albumin-added medium: neurosphere morphology
Type: cell-based
Settings: 14 days' culturing
Description: Similar to Example 1, 2.1 mg/mL human serum albumin-added medium was produced. A medium was produced by adding oleic acid (Tokyo Chemical Industry Co., Ltd.) at a final concentration of 20 μM or 60 μM to this medium, and a medium without addition of oleic acid was produced, and neurospheres were cultured in these media. […] The medium was exchanged every 7 days and, after 14 days' culturing, the morphology of the neurosphere formed was observed under a microscope.

SMILES: CCCCCCCC/C=C\CCCCCCCC(=O)O [oleic acid]
- morphology of the neurosphere formed (20 μM oleic acid in 2.1 mg/mL human serum albumin-added medium): showed a good neurosphere form
- morphology of the neurosphere formed (60 μM oleic acid in 2.1 mg/mL human serum albumin-added medium): show a black sphere with an irregular shape; also recorded: Many black sphere images with an irregular shape were confirmed
